Source: patent US9624246B2, “Pyridazinone macrocycles as IRAK inhibitors and uses thereof” (Merck Patent GmbH, priority 2015, dated 2017)

Assays:
[1] = biological target: human purified recombinant IRAK1 (His-TEV-IRAK1 (194-712)) (Homo sapiens (Human), UniProt P51617); experiment: IRAK1 enzymatic assay (ADP-Glo luminescence); assay type: biochemical; conditions: ATP 1 μM, 2 h at RT
Description: IRAK1 is a human purified recombinant enzyme (His-TEV-IRAK1 (194-712))
In this assay, IRAK1 hydrolyses ATP and autophosphorylates. Measurement of IRAK-1 inhibition is performed in 384-well format based on luminescence assay (ADP-Glo™ Kinase Assay from Promega). Purified human recombinant IRAK1 (0.3 μg/ml) and serial diluted compounds in DMSO (range of concentration from 10 μM to 0.5 nM) or controls (1% DMSO) are incubated for 15 minutes at RT in assay buffer containing 50 mM Hepes pH 7.0, Fatty acid-free BSA 0.1%, Dithiothreitol (DTT) 2 mM, MgCl2 10 mM, EGTA 0.5 mM, Triton X-100 0.01%. The kinase reaction is then initiated by the addition of ATP at a concentration of 1 μM. After 2 hours of incubation at RT, the reaction is stopped and the unconsumed ATP depleted by the addition of ADP-Glo™ Reagent according to supplier instructions. After 40 minutes of incubation at RT, the Kinase Detection Reagent is then added to the assay plate according to supplier instructions. After 20 minutes of incubation at RT, the luminescence signal is measured with a luminometer (PerkinElmer Envision or equivalent reader).

[2] = biological target: human purified recombinant IRAK4 (His-TEV-IRAK4 (1-460)) (Homo sapiens (Human), UniProt Q9NWZ3); experiment: IRAK4 enzymatic assay (ADP-Glo luminescence); assay type: biochemical; conditions: ATP 2 μM, STK1-biotin peptide 300 nM, 2 h at RT
Description: IRAK4 is a human purified recombinant enzyme (His-TEV-IRAK4 (1-460)).
In this assay, IRAK4 hydrolyses ATP, autophosphorylates and phosphorylates a Serine/Threonine generic peptidic substrate (STK: 61ST1BLC from CisBio International). Measurement of IRAK-4 inhibition is performed in 384-well format based on a luminescence assay (ADP-Glo™ Kinase Assay from Promega). Purified human recombinant IRAK4 (0.3 μg/ml) and serial diluted compounds in DMSO (range of concentration from 10 μM to 0.5 nM) or controls (1% DMSO) are incubated for 15 minutes at RT in assay buffer containing 50 mM Hepes pH 7.0, Fatty acid-free BSA 0.1%, Dithiothreitol (DTT) 2 mM, MgCl2 10 mM, EGTA 0.5 mM, Triton X-100 0.01%, MnCl2 5 mM. The kinase reaction is then initiated by the addition of ATP (2 μM) and the peptidic substrate STK1-biotin peptide (300 nM). After 2 hours of incubation at RT, the reaction is stopped and the unconsumed ATP depleted by the addition of ADP-Glo™ Reagent according to supplier instructions. After 40 minutes of incubation at RT, the Kinase Detection Reagent is then added to the assay plate according to supplier instructions. After 20 minutes of incubation at RT, the luminescence signal is measured with a plate-reading luminometer (PerkinElmer Envision or equivalent reader).

Sequence of human purified recombinant IRAK4 (His-TEV-IRAK4 (1-460)) (Q9NWZ3 whole entry): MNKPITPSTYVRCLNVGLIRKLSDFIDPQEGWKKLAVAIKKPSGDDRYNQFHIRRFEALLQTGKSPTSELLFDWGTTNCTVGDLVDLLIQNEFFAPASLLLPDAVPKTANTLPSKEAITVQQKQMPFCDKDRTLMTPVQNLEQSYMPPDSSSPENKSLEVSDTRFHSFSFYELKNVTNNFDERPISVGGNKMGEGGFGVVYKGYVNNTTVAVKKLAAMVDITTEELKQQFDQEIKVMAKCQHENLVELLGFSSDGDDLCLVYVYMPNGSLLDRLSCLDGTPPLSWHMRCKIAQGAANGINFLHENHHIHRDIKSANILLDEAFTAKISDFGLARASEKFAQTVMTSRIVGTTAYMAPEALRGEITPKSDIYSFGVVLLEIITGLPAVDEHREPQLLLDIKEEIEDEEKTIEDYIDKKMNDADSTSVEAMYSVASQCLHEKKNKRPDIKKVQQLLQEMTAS
Sequence of human purified recombinant IRAK1 (His-TEV-IRAK1 (194-712)) (P51617 194-712): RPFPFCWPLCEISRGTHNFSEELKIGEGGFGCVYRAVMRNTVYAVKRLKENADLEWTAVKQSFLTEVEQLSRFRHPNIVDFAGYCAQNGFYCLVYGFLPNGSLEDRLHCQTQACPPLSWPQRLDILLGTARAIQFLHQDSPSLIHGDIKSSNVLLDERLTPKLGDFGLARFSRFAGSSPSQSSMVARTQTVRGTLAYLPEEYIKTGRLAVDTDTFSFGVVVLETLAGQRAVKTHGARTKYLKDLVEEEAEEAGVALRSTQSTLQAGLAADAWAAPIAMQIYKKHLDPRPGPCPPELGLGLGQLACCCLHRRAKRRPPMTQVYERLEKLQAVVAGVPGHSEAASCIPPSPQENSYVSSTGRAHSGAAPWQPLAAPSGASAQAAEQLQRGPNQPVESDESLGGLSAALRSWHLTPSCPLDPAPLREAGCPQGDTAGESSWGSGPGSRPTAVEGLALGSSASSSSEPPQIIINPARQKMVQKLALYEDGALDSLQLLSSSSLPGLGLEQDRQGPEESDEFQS

Compound	IC50 [1] [nM]	IC50 [2] [nM]
Cn1cc2c(n1)C(=O)NCCCOc1ccc(=O)n(n1)Cc1cccc(c1)C(=O)N2 [Compound 1, 12-methyl-20-oxa-1,9,12,13,16,25-hexaazatetracyclo[19.3.1.1^3,70^10,14]hexacosa-3,5,7(26),10,13,21(25),22-heptaene-8,15,24-trione]	100 to 1000	< 100
Cn1cc2c(n1)C(=O)NCCn1cc(cn1)-c1ccc(=O)n(n1)Cc1cccc(c1)C(=O)N2 [Compound 2, 12-methyl-4,5,8,11,12,15,23,27-octaazapentacyclo[21.3.1.1^2,5.1^17,210^10,14]nonacosa-1(27),2(29) 3,10,13,17(28),18,20,25-nonaene-9,16,24-trione]	< 100	< 100
Cn1cc2c(n1)C(=O)NCc1cncc(c1)-c1ccc(=O)n(n1)Cc1cccc(c1)C(=O)N2 [Compound 3, 17-methyl-6,14,17,18,21,25,29-heptaazapentacyclo[21.3.1.1^2,61^8,12.0^15,19]nonacosa-1(27),2(29), 3,8,10,12(28),15,18,23,25-decaene-5,13,20-trione]	100 to 1000	< 100
Cn1cc2c(n1)C(=O)NCCOc1ccc(=O)n(n1)Cc1cccc(c1)C(=O)N2 [Compound 4, 12-methyl-19-oxa-1,9,12,13,16,24-hexaazatetracyclo[18.3.1.1^3,7.0^10,14]pentacosa-3,5,7(25),10,13,20(24),21-heptaene-8,15,23-trione]	> 5000	> 5000
O=C1Nc2cn(C3CCOCC3)nc2C(=O)NCCCOc2ccc(=O)n(n2)Cc2cccc1c2 [Compound 6, 12-(oxan-4-yl)-20-oxa-1,9,12,13,16,25-hexaazatetracyclo[19.3.1.1^3,7.0^10,14]hexacosa-3,5,7(26),10,13,21(25),22-heptaene-8,15,24-trione]	100 to 1000	< 100
CC(C)(C)n1cc2c(n1)C(=O)NCCCOc1ccc(=O)n(n1)Cc1cccc(c1)C(=O)N2 [Compound 7, 12-tert-butyl-20-oxa-1,9,12,13,16,25-hexaazatetracyclo[19.3.1.1^3,7.0^10,14]hexacosa-3,5,7(26),10,13,21(25),22-heptaene-8,15,24-trione]	100 to 1000	< 100
Cn1cc2c(n1)C(=O)NCCCOc1ccc(=O)n(n1)Cc1cccc(n1)C(=O)N2 [Compound 8, 12-methyl-20-oxa-1,9,12,13,16,25,26-heptaazatetracyclo[19.3.1.1^3,70^10,14]hexacosa-3,5,7(26),10,13,21(25),22-heptaene-8,15,24-trione]	> 5000	< 100
O=C1Nc2cn(C3CCOCC3)nc2C(=O)NCCCOc2ccc(=O)n(n2)Cc2cccc1n2 [Compound 9, 12-(oxan-4-yl)-20-oxa-1,9,12,13,16,25,26-heptaazatetracyclo[19.3.1.1^3,7.0^10,14]hexacosa-3,5,7(26),10,13,21(25),22-heptaene-8,15,24-trione]	> 5000	< 100
CC(C)(C)n1cc2c(n1)C(=O)NCCCOc1ccc(=O)n(n1)Cc1cccc(n1)C(=O)N2 [Compound 10, 12-tert-butyl-20-oxa-1,9,12,13,16,25,26-heptaazatetracyclo[19.3.1.1^3,7.0^10,14]hexacosa-3,5,7(26),10,13,21(25),22-heptaene-8,15,24-trione]		1000 to 5000
O=C1Nc2cn(C3CCOCC3)nc2C(=O)NCC(O)COc2ccc(=O)n(n2)Cc2cccc1c2 (stereo not drawn) [Compound 11, 18-hydroxy-12-(oxan-4-yl)-20-oxa-1,9,12,13,16,25-hexaazatetracyclo[19.3.1.1^3,7.0^10,14]hexacoa-3,5,7(26),10,13,21(25),22-heptaene-8,15,24-trione]	100 to 1000	< 100
Cn1cc2c(n1)C(=O)NCC(O)COc1ccc(=O)n(n1)Cc1cccc(c1)C(=O)N2 (stereo not drawn) [Compound 12, 18-hydroxy-12-methyl-20-oxa-1,9,12,13,16,25-hexaazatetracyclo[19.3.1.1^3,7.0^10,14]hexacosa-3,5,7(26),10,13,21(25),22-heptaene-8,15,24-trione]	1000 to 5000	< 100
Cn1cc2c(n1)C(=O)NCc1cc(ccn1)-c1ccc(=O)n(n1)Cc1cccc(c1)C(=O)N2 [Compound 13, 17-methyl-6,14,17,18,21,24,29-heptaazapentacyclo[21.3.1.1^2,6.1^8,12.0^15,19]nonacosa-1(27),2(29),3,8,10,12(28),15,18,23,25-decaene-5,13,20-trione]	100 to 1000	< 100
Cn1cc2c(n1)C(=O)NCCc1cccc(c1)-c1ccc(=O)n(n1)Cc1cccc(c1)C(=O)N2 [Compound 14, 17-methyl-6,14,17,18,21,30-hexaazapentacyclo[22.3.1.1^2,6.1^8,12.0^15,19]triaconta-1(28),2(30),3,8,10,12(29),15,18,24,26-decaene-5,13,20-trione]	100 to 1000	< 100
Cc1cc2n(n1)CCc1cccc(c1)-c1ccc(=O)n(n1)Cc1cccc(c1)C(=O)N2 [Compound 15, 17-methyl-6,14,18,19,28-pentaazapentacyclo[20.3.1.1^2,6.1^8,12.0^15,19]octacosa-1(26),2(28),3,8,10,12(27)15,17,22,24-decaene-5,13-dione]	> 5000	> 5000
